Consider nine compounds from patent US9056847B2, “Activity based probes (ABPs) interacting with glycosidases” (ACADEMISCH MEDISCH CENTRUM BIJ UNIVERSITEIT VAN AMSTERDAM, priority 2010, dated 2015).

For data set [1], the target named is T1, GBA (Homo sapiens (Human), UniProt P04062, R534H). As to the kind of experiment: Continuous substrate release assay for inhibition constants. Format: biochemical. The conditions noted are these: for Ki: equilibrium constant for initial binding; for Ki / ki: reported with s.e.m.; for ki: rate constant; for ki/Ki: relative rate constant. The text has this: Previously discontinuous methods have been used to determine the inhibition constants of glycosidase inhibitors. […] Therefore the inhibition constants have been determined in a continuous substrate assay which was first described in 1982 (2) and has recently been reappraised in 2010 (3). In these experiments, inhibition of the enzyme and hydrolysis of the substrate proceed concurrently making the situation slightly more complex than the discontinuous (FIG. 39 Scheme 2). The time-dependent interaction of inhibitor (I) with free β-glucosidase (E) was considered to occur in separate stages (A). A rapid reversible interaction is followed by a slower, irreversible reaction that transforms the reversible enzyme-inhibitor complex (EI) into an irreversible enzyme-inhibitor complex (EI*) (FIG. 39 Scheme 2). Progress curves were obtained (FIG. 28a) and apparent rate constant k′ was plotted versus the concentration (FIG. 28b) to obtain estimates of the Ki (equilibrium constant) and ki (rate constant)
T1 sequence (P04062 40-536 R534H): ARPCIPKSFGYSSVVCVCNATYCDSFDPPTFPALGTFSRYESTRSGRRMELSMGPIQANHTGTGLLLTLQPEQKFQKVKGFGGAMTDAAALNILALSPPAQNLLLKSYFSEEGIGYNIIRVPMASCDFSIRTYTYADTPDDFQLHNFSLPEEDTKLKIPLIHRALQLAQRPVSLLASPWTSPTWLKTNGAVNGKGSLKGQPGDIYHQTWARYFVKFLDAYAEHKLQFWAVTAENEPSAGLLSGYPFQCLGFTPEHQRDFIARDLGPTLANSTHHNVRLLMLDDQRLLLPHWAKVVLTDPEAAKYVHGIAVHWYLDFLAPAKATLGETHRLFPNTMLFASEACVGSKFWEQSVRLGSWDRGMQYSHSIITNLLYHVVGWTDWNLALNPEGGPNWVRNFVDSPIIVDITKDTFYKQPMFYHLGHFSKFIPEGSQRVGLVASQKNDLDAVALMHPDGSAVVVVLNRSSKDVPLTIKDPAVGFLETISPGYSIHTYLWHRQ
To 100 μL McIlvaine buffer (pH 5.2, 0.2% sodium taurocholate, 0.1% Triton X-100) containing 4-methylumbelliferyl β-D-glucoside (7.5 mM) in Greiner flat bottom black 96-well plate was added 5 μL inhibitor (25× stock in DMSO). The resulting mixture was preincubated at 37° C. for 15 min in a TECAN GENios microplate reader. GBA (2 ng) in McIlvaine buffer (20 μL pH 5.2, 0.2% sodium taurocholate, 0.1% Triton X-100) was preheated to 37° C. for 15 min before being added to the substrate mix. The resulting solution was mixed by horizontal shaking for 15 sec, after which release 4-methylumbelliferyl measured with a TECAN GENios platereader (λex 340 nm and λem 465 nm) for the indicated time. Bleaching of the fluorophore, which was observed during the assay, was corrected by subtracting blanks (100 μL substrate buffer, 5 μL DMSO, 20 μL McIlvaine buffer). Apparent rate constants k′ were obtained by fitting the resulting progress curves (FIG. 28A) to the one-phase association equitation y (y max y0)(1−exp^−kt)yo+in GraphPad Prism version 5.00 for Windows, GraphPad Software, San Diego Calif. USA, www.graphpad.com. Measurements were performed in nine fold and plotting of the obtained k′ values versus [^I0] yielded rectangular hyperbolar functions (FIG. 28B).
[formula] estimates of Ki app and ki were obtained. The Ki value in the absence of substrate was obtained by correcting the Ki app with […]

The target of another data set is GBA1 (Homo sapiens (Human), UniProt P04062). The experiment in a line: Kinetic constants of GBA1 inhibition (Table 2). The conditions noted are these: Table 2 kinetic constants. It is filed as biochemical.
Sequence of GBA1 (P04062 40-536): as the sequence (P04062 40-536 R534H) above, with H495R counted along it
For data set [2], the target named is T1, GBA. As to the kind of experiment: Competition assay for labeling of recombinant GBA with MDW933. Format: biochemical. The note with it: 2 mM, 30 min.
Data set [3] has as its target T1, GBA. As to the kind of experiment: GBA enzyme activity assay with 4-methylumbelliferyl β-D-glucopyranoside, inhibitor preincubated 30 min (apparent IC50). It is filed as biochemical.
Data set [4] addresses T2, GBA (Homo sapiens (Human), UniProt P04062). As to the kind of experiment: Time-lapse microscopy of GBA labeling in intact fibroblasts. Format: cell-based. The note with it: 5 nM. The protocol: (§1) We next studied the labeling of GBA by MDW941 in intact fibroblasts using time-lapse microscopy. […] As a control, matched mice received the buffer solution intravenously. […] In addition to GBA, MDW933 clearly labeled other proteins that occur in the intestine in the mouse.
With the 37° C., 10% CO2 incubator enclosing the microscope, cells were imaged every 5 min for 2 hours simultaneously using fluorescence microscopy with an N2.1 filter block and phase-contrast brightfield microscopy (Leica IR-BE with Z-motor drive and a Plan APO 63×/1.40 oil immersion objective (Leica Microsystems, Rijswijk, The Netherlands), equipped with a KX85 camera, Apogee Instruments, Auburn, Calif., USA). […] An auto-focus routine was applied during acquisition. Images were analyzed using TimeLapseAVI 5.1.4 software (©Ron Hoebe, CMO, AMC, University of Amsterdam, The Netherlands; R.A.Hoebe@amc.uva.nl).

For a further data set, the system named is fibroblasts. As to the kind of experiment: Toxicity monitoring by live-cell imaging of fibroblasts. The note with it: after 100 h of exposure. Format: cell-based, human. The protocol: as §1
With the 37° C., 10% CO2 incubator enclosing the microscope, […] microscopy with an N2.1 filter block and phase-contrast brightfield microscopy (Leica IR-BE with Z-motor drive and a Plan APO 63×/1.40 oil immersion objective (Leica Microsystems, Rijswijk, The Netherlands), equipped with a KX85 camera, Apogee Instruments, Auburn, Calif., USA). […] An auto-focus routine was applied during acquisition. Images were analyzed using TimeLapseAVI 5.1.4 software (©Ron Hoebe, CMO, AMC, University of Amsterdam, The Netherlands; R.A.Hoebe@amc.uva.nl).

Data set [5] has as its target T2, GBA. As to the kind of experiment: Fluorescence microscopy of probe-labeled fibroblasts. Format: cell-based. The note with it: 5 nM, 2 h. The protocol:
We studied in situ labeling of GBA in cells using fluorescence-activated cell sorting (FACS) analysis. We first preincubated cells in the absence or presence of CBE and subsequently incubated the cells with a subsaturating or an excess amount of the green fluorescent probe 5. […] These positive results prompted us to analyze labeling of the cells with fluorescence microscopy (FIG. 25c-f). […] We also detected GBA protein by indirect immunofluorescence using the specific anti-GBA monoclonal antibody 8E4 (ref. 29). Using multispectral image analysis, we could specifically distinguish the respective fluorescent emission spectra (FIG. 25d-e) from autofluorescent background (FIG. 25c). […] As probes with a hydrophobic BODIPY moiety might nonspecifically be retained in membranes, in particular the plasma membrane, we studied this possibility more closely. […] These control probes did inhibit GBA in vitro with IC^50 values of 41 and 95 μM, respectively. However, inhibition is presumably reversible.
Fibroblasts were cultured on glass slides. […] Next, cells were washed, fixed with 3% (v/v) paraformaldehyde in PBS for 15 min, washed and incubated first with 0.05% (w/v) saponine for 15 min, next with 0.1 mM NH4Cl in PBS for 10 min and then with 3% (w/v) bovine serum albumin in PBS for 1 h. Next, the slides were incubated with anti-GBA monoclonal antibody 8E4 (1:500). […]

The next data set deals with N370S GBA (Homo sapiens (Human), UniProt P04062, N370S). As to the kind of experiment: Chaperone experiment using isofagomine in N370S GBA fibroblasts. It is filed as cell-based. The note with it: 7 d, 0, 10, 30 and 300 nM.
Sequence of N370S GBA (P04062 40-536 N409S): as the sequence (P04062 40-536 R534H) above, with N370S, H495R counted along it
Data set [6] addresses T1, GBA. The experiment in a line: Reversibility of isofagomine competition for active site labeling. Format: biochemical. The conditions noted are these: pH 5.2, wash before labeling with MDW933 (10 nM for 15 min).
A further data set relates to lactase. As to the kind of experiment: Lactose competition of MDW933 labeling in intestinal homogenates. The note with it: lactose 250 mM. Format: biochemical, mouse. From the text: FIG. 32 Indenfication of the 160 kDa protein. […] (b) Quantification of the observed fluorescent signal. Data represent mean values±s.d.
Setting [7] is: rec. GBA1, 30 min, 37 C., pH 5.2 + Tch, Tr, read-out: Apparent IC50 (nM) rec. GBA1: 30 min, 37 C., pH 5.2 + Tch, Tr.
Where [8] appears, read: recombinant GBA, in vitro, read-out: apparent half-maximal inhibitory concentration (IC50).

Where two headings read alike, the source gives them in different places.

T2 sequence (P04062 40-536): as the sequence (P04062 40-536 R534H) above, with H495R counted along it

The term Km denotes the concentration of substrate that gives half-maximal velocity. As for `Cc1cc(=O)oc2cc(O[C@@H]3O[C@H](CO)[C@@H](O)[C@H](O)[C@H]3O)ccc12` [4-methylumbelliferyl β-D-glucoside, reference compound], the Km on GBA [1] stood at 1200 µM.
What is called Ki is a measure of affinity in units of concentration, obtained from inhibition or displacement. A high value points to lower affinity. Consider `O[C@H]1[C@H](O)[C@@H](O)[C@@H]2O[C@@H]2[C@@H]1O` [CBE, Conduritol B-epoxide, reference compound], for which, at GBA1, the Ki was 7730 nM and the ki stood at 0.0244 min⁻¹. The “effect of preincubation on labeling with MDW933” value at GBA [2] is given as “blocked labeling completely”. Also, on GBA [1], the affinity corresponds to a Ki of 53000 ± 10800 nM, the “ki” value was 0.217 ± 0.026 min⁻¹ and the “ki/Ki” value came out at 67 M⁻¹ s⁻¹. For the same compound, the IC50 on GBA [3] (setting [7]) is 12000 nM.
Turning to `OC[C@@H]1[C@@H](O)[C@H](O)[C@@H](O)[C@@H]2O[C@H]12` [Cyclophellitol 3, cyclophellitol, reference compound], on GBA [1], the affinity, expressed as Ki, was 152 ± 26 nM; the “ki” value worked out at 0.078 ± 0.010 min⁻¹; the “ki/Ki” value worked out at 8570 M⁻¹ s⁻¹. Besides, at GBA [3] (setting [8]), the IC50 amounted to 150 ± 9 nM.
As for `[N-]=[N+]=NC[C@@H]1[C@@H](O)[C@H](O)[C@@H](O)[C@@H]2O[C@H]12` [KY170, (2S,3R,4S,5S)-8-azido-8-deoxy-cyclophellitol], the affinity on GBA1, expressed as Ki, was 83 nM. For the same compound, on GBA [1], the inhibition constant Ki stood at 44 ± 7 nM, the “ki” value worked out at 0.035 ± 0.003 min⁻¹ and the “ki/Ki” value came out at 13200 M⁻¹ s⁻¹. Besides, the IC50 on GBA [3] (setting [7]) came to 150 ± 30 nM. Moreover, the IC50 on GBA [3] (setting [8]) was 120 ± 4 nM.
In the case of `COc1ccc(C2=[N+]3C(=C(CCCCc4cn(C[C@@H]5[C@@H](O)[C@H](O)[C@@H](O)[C@@H]6O[C@H]56)nn4)c4ccc(-c5ccc(OC)cc5)n4[B-]3(F)F)C=C2)cc1` [MDW941], at GBA1, the affinity corresponds to a Ki of 1.56 nM and the ki was 0.0236 min⁻¹. For the same compound, at GBA [4], the “time to maximum labeling” value is recorded as at most 15 min. In addition, at GBA [1], the Ki was 8 ± 3 nM, the “ki” value was 0.208 ± 0.063 min⁻¹ and the “ki/Ki” value turned out to be 418300 M⁻¹ s⁻¹. Further, the “signs of apoptosis or toxicity” value in the data set with fibroblasts is “did not show any signs of apoptosis or toxicity”. Besides, the IC50 at GBA [3] (FIG. 16, ABPs designed for GBA1, read-out: IC50) was determined as 2 nM. Moreover, the IC50 on GBA [3] (recombinant GBA, read-out: apparent half-maximal inhibitory concentration (IC50)) turned out to be 1.94 ± 0.08 nM.
For the compound `CC1=CC(C)=[N+]2C1=C(CCCCc1cn(C[C@H]3C=C[C@H](O)[C@@H](O)[C@@H]3O)nn1)c1c(C)cc(C)n1[B-]2(F)F` [MDW1064], the IC50 at GBA [3] (setting [8]) amounted to 41000 nM.
On to `COc1ccc(C2=[N+]3C(=C(CCCCc4cn(C[C@H]5C=C[C@H](O)[C@@H](O)[C@@H]5O)nn4)c4ccc(-c5ccc(OC)cc5)n4[B-]3(F)F)C=C2)cc1` [MDW1065], for which the labeling of fibroblasts result on GBA [5] is listed as “hardly any detectable labeling”. Also, the IC50 at GBA [3] (setting [8]) was 95000 nM.
In the case of `OC[C@H]1CNC[C@@H](O)[C@@H]1O` [isofagomine], on N370S GBA, the “GBA enzyme activity in cell homogenates” value is “modest isofagomine dose-dependent increase” and the “fluorescent MDW941-labeled GBA quantified on gel” value is recorded as “modest dose-dependent increase”. Moreover, the “reversibility of competition for the active site” value on GBA [6] is given as “fully reversible”.
Regarding `OC[C@H]1O[C@@H](O[C@H]2[C@H](O)[C@@H](O)C(O)O[C@@H]2CO)[C@H](O)[C@@H](O)[C@H]1O` (stereo partly shown) [lactose], the “reduction of labeling of the high-molecular weight protein in the intestinal fraction” value in the data set with lactase is recorded as under 90%.
